{
  "source": "patent US8828416B2",
  "about": "(Cordis Corporation, priority 2004, dated 2014)",
  "key": {"[1]": {"conditions": "cited from earlier work"}, "[2]": {"tested_on": "human smooth muscle cells", "test": "Inhibition of human vascular cell proliferation with cladribine, smooth muscle cells, PDGF-stimulated cell count", "assay_type": "cell-based", "conditions": "from IC50 values 23 and 40 nanomolar", "experimental": "After twenty-four hours, the growth medium was changed and fresh medium containing 10 ng/ml platelet-derived growth factor AB (PDGF AB; LIFE Technologies), as well as various concentrations of cladribine (0.001-10,000 nM) were added with triplicate wells. Medium was replaced with fresh cladribine-containing medium after three days. On day six, cells were detached by trypsinization to yield a cell suspension, lightly centrifuged to pellet and then counted manually using a Neubauer hemocytometer system. Cell viability was assessed by trypan blue exclusion."}, "[3]": {"tested_on": "non-synchronized cultured human coronary artery smooth muscle cells", "test": "Anti-proliferative activity in non-synchronized cultured human coronary artery smooth muscle cells stimulated with two percent fetal bovine serum", "assay_type": "cell-based", "text": "The multiple curves represent various concentrations of mycophenolic acid ranging from zero to one thousand nanomolar concentrations.\nFIG. 58 illustrates, in graphical format, the anti-proliferative activity of cladribine in non-synchronized cultured human coronary artery smooth muscle cells stimulated with two percent fetal bovine serum.\nThe multiple curves represent various concentrations of cladribine ranging from zero to nine hundred nanomolar concentrations."}, "[4]": {"test": "In vitro release kinetics of cladribine from PVDF/HFP coatings in twenty-five percent ethanol/water", "assay_type": "in vitro ADME", "conditions": "room temperature", "text": "FIG. […] The basecoat comprises a ratio of PVDF/ HFP (85/15) and cladribine. Cladribine comprises thirty percent of the basecoat. The topcoat also comprises an 85/15 ratio of PVDF and HFP, but no cladribine. Curve 5902 represents the release kinetics of cladribine wherein the basecoat weight is six hundred micrograms (one hundred eighty micrograms cladribine). Curve 5904 represents the release kinetics of cladribine wherein the basecoat weight is one thousand eight hundred micrograms (five hundred forty micrograms cladribine). Curve 5906 represents the release kinetics of cladribine wherein the basecoat weight is six hundred micrograms (one hunded eighty micrograms cladribine) and the topcoat weight is one hundred micrograms. Curve 5908 represents the release kinetics of cladribine wherein the basecoat weight is one thousand eight hundred micrograms (five hundred forty micrograms cladribine) and the topcoat is three hundred micrograms. Curve 5910 represents the release kinetic of cladribine wherein the basecoat weight is six hundred micrograms (one hundred eighty micrograms cladribine) and the topcoat is three hundred micrograms.\nFIG. 60 is a graphical representation of the in vitro release kinetics of cladribine from a sterile PVDF/HFP coating incorporated in a twenty-five percent ethanol/water release medium at room temperature. […]"}, "[5]": {"test": "In vivo release kinetics of cladribine and rapamycin from coated Bx Velocity stents in Yorkshire pigs", "design": "species or system Yorkshire pig", "text": "FIG. 61 is a graphical representation of the in vivo release kinetics of cladribine from a polymeric coating on Bx Velocity® stents, available from Cordis Corporation, implanted in a Yorkshire pig. The basecoat comprises an 85/15 ratio of PVDF and HFP and cladribine for a total combined weight of one thousand eight hundred micrograms (cladribine comprising thirty percent of the total weight). […]\n(§1) The basecoat is applied to Bx Velocity® stents and implanted into Yorkshire pigs.\nas §1"}, "[6]": {"test": "In vivo release kinetics of rapamycin and mycophenolic acid from polymer coatings, porcine pharmacokinetics studies", "text": "The topcoat is two hundred micro grams."}, "[7]": {"test": "In vitro release kinetics of rapamycin from a combination of rapamycin and mycophenolic acid", "assay_type": "in vitro ADME", "conditions": "FIG. 55", "text": "The in vitro tests were run twice for each coating scenario."}, "[8]": {"tested_on": "synchronized cultured human coronary artery smooth muscle cells", "test": "Anti-proliferative activity in synchronized cultured human coronary artery smooth muscle cells stimulated with two percent fetal bovine serum", "assay_type": "cell-based", "conditions": "topotecan zero to three hundred nanomolar, FIG. 64", "text": "(§2) The multiple curves represent various concentrations of topotecan ranging from zero to three hundred nanomolar concentrations."}, "cell viability": {"tested_on": "cell viability", "test": "Separate cell viability assay of topotecan", "assay_type": "cell-based", "conditions": "concentrations up to one micromolar", "text": "as §2"}, "[9]": {"tested_on": "human coronary artery smooth muscle cell", "conditions": "Brehm et al., 2000; cited from earlier work"}, "[10]": {"tested_on": "human coronary artery smooth muscle cell", "test": "Inhibition of coronary artery smooth muscle cell proliferation by trichostatin A, in vitro cell culture", "assay_type": "cell-based", "text": "FIG. 51 is a graph of the inhibition of coronary artery smooth muscle cells by trichostatin A in a cell culture study."}, "tumor cell lines": {"tested_on": "tumor cell lines", "conditions": "tumor cell lines (Woo et al., 2002); cited from earlier work"}},
  "note": "Entries after “also recorded” stand apart in the source; their conditions may differ. Like-named read-outs stand apart in the source and are kept apart here.",
  "data": [
    {"smiles": "CC[C@@]1(O)C(=O)OCc2c1cc1n(c2=O)Cc2cc3ccccc3nc2-1", "note": "[Camptothecin, camptothecin]", "values": [
      {"measurement": "lipid solubility", "setting": "[1]", "value": "high lipid solubility"},
      {"measurement": "water solubility", "setting": "[1]", "value": "poor water solubility"}
    ]},
    {"smiles": "Nc1nc(Cl)nc2c1ncn2[C@H]1C[C@H](O)[C@@H](CO)O1", "note": "[Cladribine, 2-chlorodeoxyadenosine]", "values": [
      {"measurement": "potency as inhibitor of smooth muscle cells relative to endothelial cells", "setting": "[2]", "value": "approximately twice as potent"},
      {"measurement": "inhibition of human coronary artery smooth muscle cell proliferation", "setting": "[3]; cladribine alone, FIG. 58", "value": "completely inhibits"},
      {"measurement": "effect of added cladribine on the anti-proliferative rapamycin dose response curve", "setting": "[3]; cladribine zero to nine hundred nanomolar, FIG. 57", "value": "potentiate the anti-proliferative activity of rapamycin; also recorded: increases the percent inhibition of rapamycin alone"},
      {"measurement": "in vitro release rate of cladribine, effect of topcoat weight", "setting": "[4]; non-sterile PVDF/HFP (85/15) coatings, FIG. 59", "value": "an increase in topcoat weight or thickness led to a decrease in the release rate of cladribine"},
      {"measurement": "in vitro release rate of cladribine, effect of topcoat", "setting": "[4]; sterile PVDF/HFP coating, FIG. 60", "value": "a three-times topcoat led to a drastic decrease of release rate"},
      {"measurement": "in vivo elution of cladribine compared with rapamycin", "setting": "[5]; EVA/BMA basecoat, 200 μg BMA topcoat, Yorkshire pigs, FIG. 63", "value": "elutes more rapidly than rapamycin"},
      {"measurement": "in vivo elution of cladribine over time", "setting": "[5]; PVDF/HFP 85/15 basecoat 1800 μg (thirty percent cladribine), 300 μg topcoat, Yorkshire pig, FIG. 61", "value": "after the first day, the elution of cladribine levels off significantly"}
    ]},
    {"smiles": "CO[C@H]1C[C@@H]2CC[C@@H](C)[C@@](O)(O2)C(=O)C(=O)N2CCCC[C@H]2C(=O)O[C@H]([C@H](C)C[C@@H]2CC[C@@H](O)[C@H](OC)C2)CC(=O)[C@H](C)/C=C(\\C)[C@@H](O)[C@@H](OC)C(=O)[C@H](C)C[C@H](C)/C=C/C=C/C=C/1C", "note": "[Rapamycin, rapamycin]", "values": [
      {"measurement": "in vivo release of rapamycin from EVA/BMA basecoat, effect of BMA topcoat", "setting": "[6]; 600 μg basecoat with 180 μg rapamycin and 180 μg mycophenolic acid, no, 100 or 200 μg BMA topcoat, FIG. 53", "value": "BMA topcoat does slow the release of rapamycin from the basecoat"},
      {"measurement": "in vivo release rate of rapamycin compared with mycophenolic acid", "setting": "[6]; PVDF basecoat 600 μg with PVDF topcoat 200 μg, FIG. 56", "value": "slower release rate than that of mycophenolic acid"},
      {"measurement": "in vitro release of rapamycin from EVA/BMA basecoat, effect of BMA topcoat", "setting": "[7]; 600 μg basecoat with 180 μg rapamycin and 180 μg mycophenolic acid", "value": "BMA topcoat does slow the release of rapamycin from the basecoat in in vitro testing"},
      {"measurement": "in vitro release rates of rapamycin compared with in vivo", "setting": "[7]; EVA/BMA basecoat", "value": "release rates are faster than in the in vivo testing"},
      {"measurement": "in vivo release rates of rapamycin from rapamycin/cladribine EVA/BMA basecoats", "setting": "[5]; three rapamycin/cladribine loadings, 200 μg BMA topcoat, Yorkshire pigs, FIG. 62", "value": "substantially similar to one another"}
    ]},
    {"smiles": "CC[C@@]1(O)C(=O)OCc2c1cc1n(c2=O)Cc2cc3c(CN(C)C)c(O)ccc3nc2-1", "note": "[Topotecan, topotecan]", "values": [
      {"measurement": "effect of added topotecan on the anti-proliferative rapamycin dose response curve", "setting": "[8]", "value": "potentiate the anti-proliferative activity of rapamycin; also recorded: increases the percent inhibition of rapamycin alone"},
      {"measurement": "cytotoxicity in cell viability assay", "setting": "cell viability", "value": "non-cytotoxic"},
      {"measurement": "inhibition of human coronary artery smooth muscle cell proliferation", "setting": "[9]", "value": "inhibit human coronary artery smooth muscle cell proliferation"}
    ]},
    {"smiles": "COc1c(C)c2c(c(O)c1C/C=C(\\C)CCC(=O)O)C(=O)OC2", "note": "[mycophenolic acid]", "values": [
      {"measurement": "effect of added mycophenolic acid on the anti-proliferative rapamycin dose response curve", "setting": "[3]; mycophenolic acid zero to one thousand nanomolar, FIG. 52", "value": "potentiates the anti-proliferative activity of rapamycin"},
      {"measurement": "in vivo release of mycophenolic acid from EVA/BMA basecoat, effect of BMA topcoat", "setting": "[6]; 600 μg basecoat with 180 μg rapamycin and 180 μg mycophenolic acid, no, 100 or 200 μg BMA topcoat, FIG. 54", "value": "BMA topcoat does slow the release of mycophenolic acid from the basecoat"},
      {"measurement": "in vivo elution of mycophenolic acid compared with rapamycin", "setting": "[6]; EVA/BMA basecoat, FIG. 53 and 54", "value": "elutes more completely over a shorter duration than the rapamycin"}
    ]},
    {"smiles": "CC(/C=C/C(=O)NO)=C\\[C@@H](C)C(=O)c1ccc(N(C)C)cc1", "note": "[trichostatin A]", "values": [
      {"measurement": "inhibition of human coronary artery smooth muscle cell proliferation", "setting": "[10]; FIG. 51", "value": "completely inhibit"},
      {"measurement": "IC50", "setting": "[10]; read-out: anti-proliferative IC50", "value": "~6", "unit": "nM"},
      {"measurement": "anti-proliferative IC50", "setting": "tumor cell lines", "value": "low nM range"}
    ]}
  ]
}
